ChEMBL document CHEMBL1137552, “Modifications of the chemical structure of terpenes in antiplasmodial and antifungal drug research” (Bioorg Med Chem Lett, 2007)
Values after ≈ are worked out from the molar mass of the structure shown.

How the values were obtained:
Plasmodium falciparum = experiment: Antiplasmodial activity after 48 hrs against chloroquine-resistant Plasmodium falciparum FcM29-Cameroon by [3H]hypoxanthine uptake; assay type: functional, organism-based
Candida albicans [1] = experiment: Antifungal activity against Candida albicans ATCC 90028 after 24 hrs; assay type: functional; details: ATCC 90028, 24 h
Candida albicans [2] = experiment: Antifungal activity against Candida albicans ATCC 90028 after 48 hrs; assay type: functional; details: ATCC 90028, 48 h

SMILES | IC50 (Plasmodium falciparum) [µM] | MIC (Candida albicans [1]) [µg/mL] | MIC (Candida albicans [2]) [µg/mL]
C#CCOC/C=C(\C)CCC=C(C)C | 122 | > 200 | > 200
C#CCOCC1=CC[C@@H](C(=C)C)CC1 | 33 | > 200 | > 200
C#CCO[C@@H]1C[C@H](C)CC[C@H]1C(=C)C | 31 | > 200 | > 200
C=C(C)[C@H]1CCC23COC=CC2C3C1 (stereo partly drawn) | > 100 | > 200 | > 200
CC1CC(=O)O[C@@H]2C[C@H](C)CC[C@@H]12 (stereo partly drawn) | 470 | > 200 | > 200
CC(C)=CCC[C@@]1(C)OCC2=CC(=O)CC21 (stereo partly drawn) | 1.8 | > 200 | > 200
C=CC1=C(C)[C@@H]2CC[C@@H](C)C[C@H]2OC1 | > 100 | > 200 | > 200
C#CCO[C@@](C)(C=C)CCC=C(C)C | 39 | > 200 | > 200
C[C@@H]1CC[C@H]2[C@@H](C)C(=O)O[C@@H]3O[C@@]4(C)CC[C@@H]1[C@]32OO4 [ARTEMISININ] | 0.007 | > 200 | > 200
CCN(CC)CCCC(C)Nc1ccnc2cc(Cl)ccc12 (stereo not drawn) [CHLOROQUINE] | – | > 200 | > 200
CC(C)=CCCC(C)CCO (stereo not drawn) [CITRONELLOL] | 192 | > 200 | > 200
C=C(C)[C@H]1CC=C(C)CC1 [D-LIMONENE] | 66 | > 200 | > 200
Nc1nc(=O)[nH]cc1F [FLUCYTOSINE] | – | – | 0.75 (≈ 5.81 µM)
CC(C)=CCC/C(C)=C/CO [GERANIOL] | 52 | > 200 | > 200
C=C(C)[C@@H]1CC[C@@H](C)C[C@H]1O [ISOPULEGOL] | 282 | > 200 | > 200
C=CC(C)(O)CCC=C(C)C (stereo not drawn) [LINALOOL] | 519 | > 200 | > 200
C=C(C)[C@@H]1CC=C(CO)CC1 [PERILLYL ALCOHOL] | 184 | > 200 | > 200
